Data: patent publication US20210023223A1, “HYDROCARBON / LIPID - CAROTENOID COMPLEXES” (IP SCIENCE LIMITED, priority 2018, published 2021)

How the values were obtained:
[1] = tested on: middle-aged volunteers, facial skin; assay: Lycopene trial, facial skin surface material; type: in vivo, human; conditions: 7 mg formulated lycopene daily, 4 weeks
Experimental: Group II—15 middle-aged (7 males and 8 females, 48-65 years old) for lycopene intervention and
Group II—participants received 7 mg formulated lycopene,
Daily dose of each carotenoid product was taken in one capsule with the main evening meal for 4 weeks (from day 1 to day 28 of the study).
For RSSC sample collection all participants of the study were requested to avoid facial hygienic manipulations for 24 hours before material collection, which was carried out in the morning. These samples were collected only before initiation of astaxanthin supplementation (day 0) and at the end of the study (day 29). RSSC sample collection and preparation was performed according to previously described procedures. Briefly, RSSC samples were collected using polyester swabs from the surface of the facial skin (the sides of the nose). During the procedure two samples were taken (one swab per side). Each collected sample was placed on the surface of a microscope slide. A second microscope slide was pressed against the surface of the first one. […] All slides with collected samples (i.e. four slides per study participant per time point) were coded to provide sample anonymity for blinded analysis. All collected samples were sent to the laboratory of Lycotec Ltd for further processing and eventual microscopic examination.
For morphological analysis of RSSC samples one slide of the first pair was stained with hematoxylin and eosin in order to identify any cells or cell remnants. The second slide was stained using Oil Red O (Lipid Stain, ab150678, Abcam, Cambridge, UK) for lipid visualization and lipid droplet size evaluation. One slide from the other pair was stained with crystal violet solution (Gram staining) to assess the level of microorganism presence. The remaining slides were kept unstained for possible future use.
The analysis of typical structural elements of the RSSC comprised lipid droplet measurements, counting characteristic lipid crystals and desquamated corneocytes, and evaluation of bacterial presence as previously described. The indicated micro objects/structures were quantified using Cell^B imaging software (Digital Imaging Solutions, Olympus, Japan). All microscopic samples were blinded before their examinations.
Smears collected from the surface of the facial skin were fixed with methanol. Permeabilised corneocytes and sebum present in the material were stained for direct immunofluorescence using fluorescein isothiocyanate-conjugated monoclonal antibody against lycopene recently generated by our group. Fluorescent staining was visualised using Nikon Eclipse 50i microscope with fluorescence attachment. The semi-quantitative analysis was based on visually assessing fluorescence levels in corneocytes and surrounding sebum in 20 random fields of view at ×200 magnification. Fluorescence intensity in the samples was classified using the following scoring system: 0—no fluorescence; 0.5—traces of fluorescence; 1—weak fluorescence; 2—moderate fluorescence; 3—strong fluorescence of some cells or areas of sebum background; 4—extremely strong fluorescence (confluent fluorescent elements within corneocytes). Fluorescence assessment in each sample was repeated blindly three times.

[2] = tested on: moderately obese volunteers; assay: Inflammatory Oxidative Damage (IOD) of serum; type: in vivo, human
Experimental: Study Design. The total number of volunteers recruited to take part in the study was 18 (9 male and 9 female subjects) Caucasians 40-67 years old.
Products Formulated with Lycopene was developed and made by Lycotec Ltd. (Cambridge, United Kingdom). The daily dose was 1 capsule of 20 mg of lycopene, and it was taken with the main meal of the day. The period of administration was 1 month.
Serum samples were incubated overnight in 0.05 M PBS acetate buffer (pH 5.6) to imitate the type of oxidative damage, which occurs during the release of lysosomes following neutrophil degranulation. The following morning the reaction was stopped using trichloroacetic acid. The concentration of the end products such as malonic dialdehyde (MDA), and other possible thiobarbituric acid reactive substances (TBARS), was then measured by colorimetry using reagents and kits from Cayman Chemical (MC, USA).

[3] = Oil volume needed to cover water surface; type: physicochemical; conditions: vs unmodified olive oil
Source text: The other way to assess changes in oil viscosity, caused by carotenoids, would be to measure how much oil would be needed to cover a water surface of the same size. The lower viscosity of the oil the more spreadable it will be, and consequently less of it would be needed to cover this surface. Therefore, by measuring how much oil would be required to cover a certain surface of water we can asses how deep changes in the lipid folding were made by incorporating carotenoids.
An additional nine heating experiments were carried out when either pure Napolina olive oil, Napolina olive oil containing Astaxanthin (7 mg/ml), or Napolina olive oil containing Lycopene (7 mg/ml) was carefully poured over the surface of the water in order to prevent evaporation. The amount of oil required to completely cover the surface of the 100 ml water sample in the cup (diameter—7.4 cm) was measured (15 ml Falcon laboratory tubes and 1 ml Pipetman pitettes were used) and recorded for each oil type. The thickness of the resulting oil film (necessary to completely cover water surface) was then calculated. Temperature change curves were compared for uncovered water and water samples overlayed with three varieties of oil at heating temperatures of 200° C., 250° C. and 300° C. Water samples overlaid with oils were heated until water reached boiling point (usually at 99° C.). […]

[4] = Heating dairy butter to boiling point; type: physicochemical
Experimental: Small pieces of butter (about 1 g) were placed in a metallic tray. They were heated to 350° C. (Revotherm, Scientific Instruments Ltd.) and boiled for 3 minutes. Time taken to reach boiling point was fixed with a laboratory timer (QUANTUM).

[5] = Defrosting time of frozen oil; type: physicochemical
Experimental: To determined defrosting time, frozen oil aliquots of 200 μI were incubated at ambient temperature of 20±2 C° until they were completely melted. Period of time, which was required for the tested sample to be melted, was measured with a laboratory timer (QUANTUM).

Melting time = type: physicochemical; conditions: lycopene 0.25 to 0.5 mg per 1 gram
Experimental: Approximately 20 mg of butter, or pork fat, or beef fat, or cocoa butter, or chocolate, with or without certain concentrations of carotenoids, were placed on the surface of the laboratory slides and incubated at 37° C. in a laboratory incubator (TLK39).
For example, in experiments with the chocolate spread, when the lycopene was 0.25 to 0.5 mg per 1 gram of this product its melting time reduced by 30-35%, FIG. 18.

[6] = Heating olive oil-in-water emulsions; type: physicochemical

Question: For `CC(C)=CCC/C(C)=C/C=C/C(C)=C/C=C/C(C)=C/C=C/C=C(C)/C=C/C=C(C)/C=C/C=C(\C)CCC=C(C)C` [Lycopene], which “Bacterial load on the surface of the skin” value [1] is on record?
Answer: significant reduction of the bacterial load

Question: And the “Lycopene presence in desquamated corneocytes” value [1]?
Answer: significantly increased for the whole period of supplementation

Question: What about the “Lycopene presence in sebum” value [1] of the same molecule?
Answer: lycopene amount growth only during the first two weeks of supplementation

Question: And the “Rate of desquamation of corneocytes” value [1]?
Answer: noticeably lower

Question: And the Sebum production [1]?
Answer: significant increase of the sebum production

Question: What about the IOD ([2]; after 20 mg lycopene daily for one month) of the same molecule?
Answer: 60 ± 5.8 μM MDA

Question: What about the IOD ([2]; before, n = 18) of the same molecule?
Answer: 107 ± 11.6 μM MDA

Question: And the “Reduction of oil required to cover the same water area” value [3]?
Answer: ~60%

Question: What about the “Reduction of time to bring butter to its boiling point” value ([4]; number of lycopene molecules increased to 10) of the same molecule?
Answer: 75%

Question: And the “Reduction of time to bring butter to its boiling point” value ([4]; one molecule of lycopene to more than 22,000 molecules of butter triglycerides)?
Answer: 25%

Question: What about the “Reduction of thawing time of Canola/Rapeseed oil” value ([5]; 0.3 mg per 1 ml of the oil) of the same molecule?
Answer: over 2 fold

Question: And the “Reduction of thawing time of Olive oil” value ([5]; 0.3 mg per 1 ml of the oil)?
Answer: 10 fold

Question: And the “Thawing time of Canola/Rapeseed oil” value ([5]; 0.3 mg per 1 ml of the oil, control 85 seconds)?
Answer: 40 s

Question: And the “Thawing time of Cod Liver oil” value ([5]; 0.3 mg per 1 ml of the oil, control 120)?
Answer: 55 s

Question: What about the “Thawing time of frozen Olive oil” value ([5]; 0.3 mg per 1 ml of the oil, controls 60 (lycopene) and 48 seconds (astaxanthin)) of the same molecule?
Answer: 6 s

Question: What about the “Reduction of thawing time of Sunflower oil” value ([5]; 0.3 mg per 1 ml the oil) of the same molecule?
Answer: 17 fold

Question: What about the “Reduction of melting time of chocolate spread” value (Melting time) of the same molecule?
Answer: 30-35%

Question: What about the “Rate of heating of olive oil emulsion in water in the first 3 minutes” value ([6]; 50%:50%, 1 molecule lycopene to 67,000 or astaxanthin to 71,000 fatty acids, control 10° C.) of the same molecule?
Answer: 18 °C

Question: What about the “Maximum temperature the emulsion could reach” value ([6]; water to olive oil 75%:25%, control 62° C.) of the same molecule?
Answer: 100 °C
